Data taken from US7772241B2, “Variolin derivatives and their use as antitumor agents” (Pharma Mar S.A., priority 2001, dated 2010).
Where two headings read alike, the source gives them in different places.

Legend:
PANC-1 = test: Inhibition of cells growth by colorimetric (SRB) assay, PANC-1; settings: for GI50 / CC50: Homo sapiens, PANC-1, 48 h
Method in brief: (§1)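 Human tumour cells in RPMI 1640 with 10% FBS were seeded at 5×10^3 cells/well, allowed to attach for 18 h, then exposed to samples at 10 to 10^−8 μg/ml for 48 h. Growth was measured by SRB staining after TCA fixation, with absorbance read at 490 nm in triplicate wells.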

IGROV-1 = test: Inhibition of cells growth by colorimetric (SRB) assay, IGROV-1; settings: for GI50 / CC50: Homo sapiens, IGROV-1, 48 h
Method in brief: as §1

IGROV-ET = test: Inhibition of cells growth by colorimetric (SRB) assay, IGROV-ET; settings: for GI50 / CC50: Homo sapiens, 48 h
Method in brief: as §1

HeLa-APL = test: Inhibition of cells growth by colorimetric (SRB) assay, HeLa-APL
Method in brief: as §1

SK-OV-3 = test: Inhibition of cells growth by colorimetric (SRB) assay, SK-OV-3
Method in brief: as §1

A-549 = test: Inhibition of cells growth by colorimetric (SRB) assay, A-549; settings: for GI50 / CC50: Homo sapiens, A549, 48 h
Method in brief: as §1

SK-BR-3 = test: Inhibition of cells growth by colorimetric (SRB) assay, SK-BR-3; settings: for GI50 / CC50: Homo sapiens, SK-BR-3, 48 h
Method in brief: as §1

HeLa = test: Inhibition of cells growth by colorimetric (SRB) assay, HeLa; for HELA TGI: unit not given here
Method in brief: as §1

LoVo = test: Inhibition of cells growth by colorimetric (SRB) assay, LoVo; settings: for GI50 / CC50: Homo sapiens, LoVo, 48 h
Method in brief: as §1

SK-MEL-28 = test: Inhibition of cells growth by colorimetric (SRB) assay, SK-MEL-28; settings: for GI50 / CC50: Homo sapiens, SK-MEL-28, 48 h
Method in brief: as §1

LoVo-Dox = test: Inhibition of cells growth by colorimetric (SRB) assay, LoVo-Dox; settings: for GI50 / CC50: Homo sapiens, 48 h
Method in brief: as §1

HT-29 = test: Inhibition of cells growth by colorimetric (SRB) assay, HT-29; settings: for GI50 / CC50: Homo sapiens, HT-29, 48 h
Method in brief: as §1

K-562 = test: Inhibition of cells growth by colorimetric (SRB) assay, K-562; settings: for GI50 / CC50: Homo sapiens, K562, 48 h
Method in brief: as §1

DU-145 = test: Inhibition of cells growth by colorimetric (SRB) assay, DU-145; settings: for GI50 / CC50: Homo sapiens, DU-145, 48 h
Method in brief: as §1

SMILES: CSc1nccc(-c2c3cccnc3n3c(N(C(C)=O)C(C)=O)nccc23)n1 [Compound 26]
- GI50 (PANC-1; read-out: GI50 PANC-1, SRB assay, 48 hours exposure): 0.933 µM
- CC50 (PANC-1; read-out: LC50 PANC-1, SRB assay, 48 hours exposure): 21.3 µM
- GI50 (PANC-1; read-out: PANC-1 GI50, SRB assay, 48 hours exposure): 4.38 µM
- CC50 (PANC-1; read-out: PANC-1 LC50, SRB assay, 48 hours exposure): 17.6 µM
- PANC-1 TGI (PANC-1; SRB assay, 48 hours exposure): 8.79E−06
- TGI PANC-1 (PANC-1; SRB assay, 48 hours exposure): 4.05E−06
- GI50 (IGROV-1; read-out: GI50 IGROV, SRB assay, 48 hours exposure): 0.22 µM
- GI50 (IGROV-1; read-out: IGROV GI50, SRB assay, 48 hours exposure): 0.721 µM
- CC50 (IGROV-1; read-out: IGROV LC50, SRB assay, 48 hours exposure): 9.25 µM
- CC50 (IGROV-1; read-out: LC50 IGROV, SRB assay, 48 hours exposure): 9.17 µM
- IGROV TGI (IGROV-1; SRB assay, 48 hours exposure): 1.58E−07
- TGI IGROV (IGROV-1; SRB assay, 48 hours exposure): 2.73E−06
- GI50 (IGROV-ET; read-out: GI50 IGROV-ET, SRB assay, 48 hours exposure): 1.7 µM
- GI50 (IGROV-ET; read-out: IGROV-ET GI50, SRB assay, 48 hours exposure): 0.917 µM
- CC50 (IGROV-ET; read-out: IGROV-ET LC50, SRB assay, 48 hours exposure): 11.4 µM
- CC50 (IGROV-ET; read-out: LC50 IGROV-ET, SRB assay, 48 hours exposure): 25.5 µM
- IGROV-ET TGI (IGROV-ET; SRB assay, 48 hours exposure): 1.83E−06
- TGI IGROV-ET (IGROV-ET; SRB assay, 48 hours exposure): 7.50E−06
- GI50 (HeLa-APL; Homo sapiens, 48 h, read-out: HELA-APL GI50, SRB assay, 48 hours exposure): 0.00177 µM
- CC50 (HeLa-APL; Homo sapiens, 48 h, read-out: HELA-APL LC50, SRB assay, 48 hours exposure): 0.227 µM
- HELA-APL TGI (HeLa-APL; SRB assay, 48 hours exposure): 8.64E−09
- GI50 (SK-OV-3; Homo sapiens, SK-OV-3, 48 h, read-out: GI50 SKOV-3, SRB assay, 48 hours exposure): 0.28 µM
- CC50 (SK-OV-3; Homo sapiens, SK-OV-3, 48 h, read-out: LC50 SKOV-3, SRB assay, 48 hours exposure): 9.35 µM
- TGI SKOV-3 (SK-OV-3; SRB assay, 48 hours exposure): 1.13E−06
- GI50 (A-549; read-out: A-549 GI50, SRB assay, 48 hours exposure): 6.88 µM
- CC50 (A-549; read-out: A-549 LC50, SRB assay, 48 hours exposure): 21.5 µM
- GI50 (A-549; read-out: GI50 A-549, SRB assay, 48 hours exposure): 0.706 µM
- CC50 (A-549; read-out: LC50 A-549, SRB assay, 48 hours exposure): 16.5 µM
- A-549 TGI (A-549; SRB assay, 48 hours exposure): 1.22E−05
- TGI A-549 (A-549; SRB assay, 48 hours exposure): 2.93E−06
- GI50 (SK-BR-3; read-out: GI50 SK-BR-3, SRB assay, 48 hours exposure): 0.278 µM
- CC50 (SK-BR-3; read-out: LC50 SK-BR-3, SRB assay, 48 hours exposure): 2.53 µM
- GI50 (SK-BR-3; read-out: SK-BR-3 GI50, SRB assay, 48 hours exposure): 4.18 µM
- CC50 (SK-BR-3; read-out: SK-BR-3 LC50, SRB assay, 48 hours exposure): 20.7 µM
- SK-BR-3 TGI (SK-BR-3; SRB assay, 48 hours exposure): 9.30E−06
- TGI SK-BR-3 (SK-BR-3; SRB assay, 48 hours exposure): 8.38E−07
- GI50 (HeLa; Homo sapiens, HeLa, 48 h, read-out: HELA GI50, SRB assay, 48 hours exposure): 0.00197 µM
- HELA TGI (HeLa; SRB assay, 48 hours exposure): 6.91E−09
- GI50 (LoVo; read-out: GI50 LOVO, SRB assay, 48 hours exposure): 0.415 µM
- CC50 (LoVo; read-out: LC50 LOVO, SRB assay, 48 hours exposure): 13.4 µM
- GI50 (LoVo; read-out: LOVO GI50, SRB assay, 48 hours exposure): 0.525 µM
- CC50 (LoVo; read-out: LOVO LC50, SRB assay, 48 hours exposure): 2.03 µM
- LOVO TGI (LoVo; SRB assay, 48 hours exposure): 1.03E−06
- TGI LOVO (LoVo; SRB assay, 48 hours exposure): 1.87E−06
- GI50 (SK-MEL-28; read-out: GI50 MEL-28, SRB assay, 48 hours exposure): 0.273 µM
- CC50 (SK-MEL-28; read-out: LC50 MEL-28, SRB assay, 48 hours exposure): 10.1 µM
- GI50 (SK-MEL-28; read-out: MEL-28 GI50, SRB assay, 48 hours exposure): 0.202 µM
- CC50 (SK-MEL-28; read-out: MEL-28 LC50, SRB assay, 48 hours exposure): 1.29 µM
- MEL-28 TGI (SK-MEL-28; SRB assay, 48 hours exposure): 5.38E−07
- TGI MEL-28 (SK-MEL-28; SRB assay, 48 hours exposure): 2.88E−06
- GI50 (LoVo-Dox; read-out: GI50 LOVO-DOX, SRB assay, 48 hours exposure): 1.79 µM
- CC50 (LoVo-Dox; read-out: LC50 LOVO-DOX, SRB assay, 48 hours exposure): 25.5 µM
- GI50 (LoVo-Dox; read-out: LOVO-DOX GI50, SRB assay, 48 hours exposure): 6.09 µM
- CC50 (LoVo-Dox; read-out: LOVO-DOX LC50, SRB assay, 48 hours exposure): 19 µM
- LOVO-DOX TGI (LoVo-Dox; SRB assay, 48 hours exposure): 1.08E−06
- TGI LOVO-DOX (LoVo-Dox; SRB assay, 48 hours exposure): 1.10E−05
- GI50 (HT-29; read-out: GI50 HT-29, SRB assay, 48 hours exposure): 0.935 µM
- GI50 (HT-29; read-out: HT-29 GI50, SRB assay, 48 hours exposure): 1.05 µM
- CC50 (HT-29; read-out: HT-29 LC50, SRB assay, 48 hours exposure): 24.6 µM
- CC50 (HT-29; read-out: LC50 HT-29, SRB assay, 48 hours exposure): 25.5 µM
- HT-29 TGI (HT-29; SRB assay, 48 hours exposure): 3.47E−06
- TGI HT-29 (HT-29; SRB assay, 48 hours exposure): 3.36E−06
- GI50 (K-562; read-out: GI50 K-562, SRB assay, 48 hours exposure): 2.8 µM
- GI50 (K-562; read-out: K-562 GI50, SRB assay, 48 hours exposure): 6.29 µM
- CC50 (K-562; read-out: K-562 LC50, SRB assay, 48 hours exposure): 18.1 µM
- CC50 (K-562; read-out: LC50 K-562, SRB assay, 48 hours exposure): 23.4 µM
- K-562 TGI (K-562; SRB assay, 48 hours exposure): 1.07E−05
- TGI K-562 (K-562; SRB assay, 48 hours exposure): 8.10E−06
- GI50 (DU-145; read-out: DU-145 GI50, SRB assay, 48 hours exposure): 4.48 µM
- CC50 (DU-145; read-out: DU-145 LC50, SRB assay, 48 hours exposure): 18 µM
- GI50 (DU-145; read-out: GI50 DU-145, SRB assay, 48 hours exposure): 0.581 µM
- CC50 (DU-145; read-out: LC50 DU-145, SRB assay, 48 hours exposure): 14.9 µM
- DU-145 TGI (DU-145; SRB assay, 48 hours exposure): 8.99E−06
- TGI DU-145 (DU-145; SRB assay, 48 hours exposure): 2.10E−06
